Assay results reported in US6703410B1, “Crystal forms of 3-(2,4-dichlorobenzyl)-2-methyl-n-(pentylsulfonyl)-3h-benzimidazole-5-carboxamide” (Fujisawa Pharmaceutical Co., Ltd., priority 1998, dated 2004).

What was measured:
[1] = Relative crystallographic stability of the crystal forms; assay type: physicochemical; details: comparison of crystal forms A, B and C
[2] = Transition of crystal form B into crystal form A in a heated acetone/water slurry, followed by IR spectrum; assay type: physicochemical; details: suspended in acetone (51.2 g) and water (17.1 g), stirred while heating at 40° C.
Description: Crystal form B of 3-(2,4-dichlorobenzyl)-2-methyl-N-(pentylsulfonyl)-3H-benzimidazole-5-carboxamide (5.0 g) was suspended in a mixed solvent consisting of acetone (51.2 g) and water (17.1 g), and the resulting slurry was stirred while heating at 40° C. About 4 hours later, crystals in the slurry completely transitioned into those with the IR spectrum that agreed with the spectrum of crystal form A of 3-(2,4-dichlorobenzyl)-2-methyl-N-(pentylsulfonyl)-3H-benzimidazole-5-carboxamide.

Structure (SMILES) | crystallographic stability relative to the other crystal forms ([1]; listed as crystal form A) | time until crystals in the slurry completely transitioned into crystal form A [2] | crystallographic stability relative to the other crystal forms ([1]; listed as crystal form B)
CCCCCS(=O)(=O)NC(=O)c1ccc2nc(C)n(Cc3ccc(Cl)cc3Cl)c2c1 [Crystal form A, 3-(2,4-dichlorobenzyl)-2-methyl-N-(pentylsulfonyl)-3H-benzimidazole-5-carboxamide] | crystallographically more stable than crystal form B and C | – | –
CCCCCS(=O)(=O)NC(=O)c1ccc2nc(C)n(Cc3ccc(Cl)cc3Cl)c2c1 [Crystal form B, 3-(2,4-dichlorobenzyl)-2-methyl-N-(pentylsulfonyl)-3H-benzimidazole-5-carboxamide] | – | About 4 hours | not as crystallographically stable as crystal form A
